Assay results as given in US11879137B2, “Treatment of type 1 diabetes and autoimmune diseases or disorders” (THE CHILDREN'S MEDICAL CENTER CORPORATION, priority 2017, dated 2024).

Tests used:
[1] = tested on: PD-L1 on CD34+ cells; assay: Prostaglandin library screening and FACS of PD-L1 on human CD34+ cells; assay type: cell-based; conditions: for capacity to upregulate PD-L1 (MFI) in library screening: 10 μM, CD34+ cells from T1D patients; for PD-L1 expression by FACS analysis: CD34+ cells, 10 μM pulsed at 24 and 48 hours
Source text: FIGS. 17A-17J show prostaglandins enhance PD-L1 expression on human CD34^+ cells. (FIG. 17A-17B) Results of screening of a prostaglandin small molecule library tested for the ability to upregulate PD-L1 (MFI) on CD34^+ cells obtained from T1D patients. The schematic of the experimental design is shown in (A). The 3-color coding shown in (FIG. 17B) represents lowest PD-L1 MFI values (blue), median PD-L1 MFI values (pink) and highest PD-L1 MFI values (red). (FIG. 17C-17D) Representative flow cytometric analysis and quantitative bar graph of PD-L1 expression on CD34^+ cells from T1D patients pre- and post-pharmacologic modulation with PGE2 as compared to CD34^+ cells obtained from healthy controls. (FIG. 17E) PD-L1 and CXCR4 expression (mRNA) fold change was quantified for CD34^+ cells pre- and post-modulation with PGE2. (FIG. 17F) Migration assay using CD34^+ cells pre- and post-modulation with PGE2. (FIG. 17G) Confocal imaging of CD34^+ cells pre- and post-modulation with PGE2, showing DAPI (in blue) and PD-L1 (in green) staining. 63× magnification. Scale bar, 50 (FIG. 17H) IDO-1 expression (mRNA) fold change was quantified for CD34^+ cells pre- and post-modulation with PGE2. (FIG. 17I-17J) Representative flow cytometric analysis (FIG. 17I) and quantitative bar graph (FIG. 17J) of PD-L1 expression on CD34^+ cells from T1D patients pre- and post-pharmacologic modulation with 4 small molecule PGE2 agonists. All data are expressed as mean±SEM. *P<0.05, **P<0.001. Abbreviations: MFI, mean fluorescence intensity.
Pharmacological modulation of human CD34+ cells. 1×105 of isolated human CD34+ HSPCs (purity 99%) were cultured in 200 μl of StemSpan SFEM II media (SEMCELL Technologies Inc., Cambridge, MA, USA), and each compound in the Prostaglandin Screening Library II (Cayman Chemicals, Ann Arbor, MI), was added individually at day 0 and at day 1 at a concentration of 10 μM as previously reported by the inventors and others (9, 21). In another assay, isolated CD34+ cells from freshly isolated human PBMCs or from cryopreserved PBMCs, and processed as described earlier, were cultured in the presence of a cocktail of cytokines containing: 10 μg/ml heparin (SEMCELL Technologies Inc., Cambridge, MA, USA), 10 ng/ml human SCF (Miltenyi Biotec, San Diego, CA), 20 ng/ml human TPO (Miltenyi Biotec, San Diego, CA), 10 ng/ml human FGF-1 (Miltenyi Biotec, San Diego, CA), 100 ng/ml IGFBP2 (R&D Systems, Inc., Minneapolis, MN), and 500 ng/ml Angptl3 (R&D Systems, Inc., Minneapolis, MN). PGE2 (PromoKine, PromoCell Gmbh, Germany) was added by pulsing the culture at 0, 24h, 72h and 6 days with 2 μl of diluted PGE2 (10 μM). Cells were cultured for 7 days at 37° C. in 5% CO2, and CD34+ cells were then subjected to FACS analysis and were run on a FACSCelesta™ (Becton Dickinson, Franklin Lakes, NJ). Data were analyzed using FlowJo software version 8.7.3 (Treestar, Ashland, OR). The different cytokines used here and their related concentration as well as the choice of the incubation timing was used as previously reported in the literature (22).
Prostaglandin library screening. PGE2 has been described as a small molecule known to enhance the homing and engraftment of HSPCs. It was therefore sought to screen all known types of prostaglandins using the Prostaglandin Screening Library II, which contains 64 small molecules. Each small molecule contained in the library was first screened for its capacity to upregulate PD-L1 in human CD34+ cells isolated from T1D patients (FIG. 17A-17B). CD34+ cells isolated from T1D patients were cultured in StemSpan SFEMII and pulsed with each PG (prostaglandin) small molecule contained in the aforementioned library at a concentration of 10 μM at 24 and 48h. Using FACS analysis, the MFI (mean fluorescence intensity) of PD-L1 expression was calculated following treatment with each small molecule used to modulate CD34+ cells as compared to untreated/unmodulated CD34+ cells (FIG. 17B). […]

[2] = tested on: CD34+ cells; assay: qRT-PCR of PD-L1, CXCR4 and IDO-1 in prostaglandin-modulated CD34+ cells; assay type: cell-based, human; conditions: CD34+ cells upon modulation
Method: qRT-PCR. RNA was extracted from CD34+ cells using Direct-Zol™ RNA Kits (Zymo, Irvine, CA, USA) and Trizol Reagent (Invitrogen Carlsbad, CA), RNA quality was assessed by Multiskan™ GO Microplate spectrophotometer and the ratios of absorbance at 260 nm and 280 nm were assessed for all the samples. Only samples with RNA ratios within 1.9 were included in the present study. cDNA synthesis was made from purified total RNA by reverse transcription using High capacity cDNA Reverse Transcription RETROscript® Kit (Thermo Fisher Scientific, Waltham, MA, USA) followed by a pre-amplification using Taqman PreAmp Kit (Applied Biosystems) according to the manufacturer's instructions. qRT-PCR analysis was performed using TaqMan assays (Life Technologies, Grand Island, NY) containing PCR primers and TaqMan probes according to the manufacturer's instructions. Normalized expression values were determined using the ΔCt method. Quantitative reverse transcriptase polymerase chain reaction (qRT-PCR) data were normalized for the expression of GAPDH. qRT-PCR reactions were performed in triplicate in a 96-well format using an Applied Biosystems 7900HT fast real-time PCR instrument. Relative expression was calculated using the comparative threshold cycle method as previously described (23, 24). For two-group comparisons, a Student's t test was employed. Reported below are the main characteristics of the primers used: […]
Prostaglandin library screening. PGE2 has been described as a small molecule known to enhance the homing and engraftment of HSPCs. It was therefore sought to screen all known types of prostaglandins using the Prostaglandin Screening Library II, which contains 64 small molecules. Each small molecule contained in the library was first screened for its capacity to upregulate PD-L1 in human CD34+ cells isolated from T1D patients (FIG. 17A-17B). CD34+ cells isolated from T1D patients were cultured in StemSpan SFEMII and pulsed with each PG (prostaglandin) small molecule contained in the aforementioned library at a concentration of 10 μM at 24 and 48h. Using FACS analysis, the MFI (mean fluorescence intensity) of PD-L1 expression was calculated following treatment with each small molecule used to modulate CD34+ cells as compared to untreated/unmodulated CD34+ cells (FIG. 17B). A heat map was generated depicting the degree to which each PG small molecule affected PD-L1 expression on CD34+ cells (FIG. 17B), thus allowing for the evaluation of PG candidates. Based on its ability to modulate PD-L1 expression, PGE2 was selected as a candidate for further study; in addition, PGE2 has been described in the literature and has been tested in clinical trials as a potential therapy for enhancing HSPC engraftment following cord blood transplantation (21). Isolated CD34+ cells from healthy control patients (CTRL) and from T1D patients were cultured in StemSpan SFEMII and pulsed with 10 μM of PGE2 at 24 hours and 48 hours. […] It was therefore sought to perform a migration assay in order to assess the homing properties of PGE2-treated CD34+ cells (FIG. 17F).

[3] = tested on: NEU1, MTOR, MYC, IGF1R, VEGFA, RB1 in MDA-MB-231 cells; assay: mRNA of validated miRNA target genes (transfection control) in MDA-MB-231 cells; assay type: cell-based, human; conditions: VEGFA or RB1 as named for each agent, 48 h after transfection
Method: MDA-MB-231 breast cancer cells were cultured in DMEM high glucose medium (Gibco, Thermo Fisher Scientific; Waltham, MA USA) supplemented with 10% heat-inactivated fetal calf serum (Gibco, Thermo Fisher Scientific), 100 units/ml penicillin, 100 μg/ml streptomycin, and 2 mM L-glutamine. 2×10^5 cells were seeded in each well of a 6-well plate and transfected with 10 pmol of the miRNA mimic or miRNA mimic negative control, or 100 pmol of the anti-miR or anti-miR negative control (all from Exiqon, Qiagen) using the Lipofectamine RNAiMAX transfection reagent (Invitrogen, Thermo Fisher Scientific) in a final culture medium volume of 2 ml, following manufacturer's instructions. […] Forty-eight hours after transfection, cells were collected from each well for RNA extraction, cell lysate preparation and FACS analysis. RNA was extracted using Direct-zol RNA miniprep plus (Zymo research, Irvine, CA, USA) and RNA quality was checked and then retro-transcribed using RETROscript® Kit (Fisher Scientific) following manufacturer's instructions. Cell lysates were obtained in RIPA buffer (50 mmol/1 Tris-HCl, pH 8.0, 1% Triton-x, 0.5% sodium deoxycholate, 0.1% SDS, 150 mmol/1 sodium chloride) with protease inhibitor cocktail (Roche).
qRT-PCR for PD-L1 analysis was performed on retro-transcribed cDNA using SYBR® Green dye (Life Technologies, Thermo Fisher Scientific). Amplification was performed on a QuantStudio S6 Real Time PCR system (Thermo Fisher Scientific). To confirm a successful transfection, the mRNA level of genes known to be controlled by the targeted miRNAs were evaluated by SYBR® Green dye (Life Technologies, Thermo Fisher Scientific) according to the manufacturer's instructions. Normalized expression values were determined using the ΔΔCt method in treated as compared to negative treated samples, using GAPDH mRNA as endogenous reference. The miRNA-targeted genes tested, along with forward and reverse primer sequences used for their amplification, are listed in Table 13.
To determine if targeting the miRNA network decreases PD-L1 expression in human cancer setting, PD-L1-expressing MDA-MB-231 human breast cancer cells were transfected with a set of miRNA mimics or anti-miRs to either increase or decrease the function of a set of miRNAs not previously known to affect PD-L1 (miR-125b, miR-99a, miR-744, mir-599, miR-511, miR-206, miR-26b). The effect of treatment with miRNA mimics and anti-miRs on the percentage of PD-L1-expressing cells, as well as on PD-L1 mRNA and protein levels, was investigated. miRNA mimic/anti-miR treated-cells were compared to corresponding mimic/anti-miR negative control-treated cells by flow cytometric analysis, Real Time PCR and western blot to assess percentage of PD-L1-expressing cells, PD-L1 mRNA, and PD-L1 protein levels, respectively. A successful miRNA mimic/anti-miR transfection was confirmed by the detection of changed mRNA levels of the validated miRNA targets NEU1 (for miR-125b mimic), MTOR (for miR-99a mimic), MYC (for miR-744 mimic and miR-599 anti-miR), IGF1R (for miR-511 mimic), VEGFA (for miR-206 anti-miR) and RB1 (for miR-26b anti-miR) in treated cells (FIG. 22A). […] Lysates of miR-511 mimic and miR-206 anti-miR treated cells were not available for western blot analysis.

Compound | capacity to upregulate PD-L1 (MFI) in library screening [1] | PD-L1 expression by FACS analysis [1] | PD-L1 mRNA expression by RT-PCR [2] | mRNA levels of the validated miRNA target [3]
CCCCC[C@H](O)/C=C/[C@H]1[C@H](O)CC(=O)[C@@H]1CC(=O)CCCCC(=O)O [6-keto PGE1] | strongest capacity | robust upregulation |  | 
CCCCC(C)(C)[C@H](O)/C=C/[C@H]1[C@H](O)CC(=O)[C@@H]1C/C=C\CCCC(=O)Oc1ccc(NC(=O)c2ccc(NC(C)=O)cc2)cc1 [16,16-dimethyl PGE2 4-(4-acetamidobenzamido) phenyl ester] | strongest capacity | robust upregulation | marked upregulation | 
CCCCCCC[C@H](O)/C=C/[C@H]1[C@H](O)CC(=O)[C@@H]1C/C=C\CCCC(=O)O [20-ethyl PGE2] | strongest capacity | robust upregulation | marked upregulation | 
miR-26b anti-miR: Anti-miR, CUAUCCUGAAUUACUUGA, SEQ ID NO: 8 (listed as RNA, chemistry not given here) |  |  |  | changed
miR-99a mimic: miRNA mimic, AACCCGUAGAUCCGAUCUUGUG, SEQ ID NO: 3 (listed as RNA, chemistry not given here) |  |  |  | changed
miR-206 anti-miR: Anti-miR, CACACACUUCCUUACAUUCC, SEQ ID NO: 7 (listed as RNA, chemistry not given here) |  |  |  | changed
miR-511 mimic: miRNA mimic, AAUGUGUAGCAAAAGACAGA, SEQ ID NO: 2 (listed as RNA, chemistry not given here) |  |  |  | changed
miR-744 mimic: miRNA mimic, CUGUUGCCACUAACCUCAACCU, SEQ ID NO: 4 (listed as RNA, chemistry not given here) |  |  |  | changed
